Experimental data reported in patent publication US20040102622A1, “Modulation of hepatocyte growth factor receptor expression” (Isis Pharmaceuticals Inc., priority 2002, published 2004).

system: human hepatocyte growth factor receptor mRNA

Row | Substance | inhibition of human hepatocyte growth factor receptor expression
1 | ISIS 155103: 2′-MOE gapmer, phosphorothioate backbone, sequence tgggaagctgatacttcata (antisense TGGGAAGCTGATACTTCATA; all phosphorothioate, sugars by position and methylation of C not given here; 2'-MOE gapmer) | at least 35%
2 | ISIS 155106: 2′-MOE gapmer, phosphorothioate backbone, sequence cacaacctgcatgaagcgac (antisense CACAACCTGCATGAAGCGAC; all phosphorothioate, sugars by position and methylation of C not given here; 2'-MOE gapmer) | at least 35%
3 | ISIS 155113: 2′-MOE gapmer, phosphorothioate backbone, sequence ctaatgagttgatcatcata (antisense CTAATGAGTTGATCATCATA; all phosphorothioate, sugars by position and methylation of C not given here; 2'-MOE gapmer) | at least 35%
4 | ISIS 155122: 2′-MOE gapmer, phosphorothioate backbone, sequence aagcctatccaaatgaggag (antisense AAGCCTATCCAAATGAGGAG; all phosphorothioate, sugars by position and methylation of C not given here; 2'-MOE gapmer) | at least 35%
5 | ISIS 155129: 2′-MOE gapmer, phosphorothioate backbone, sequence gattgggtccgtaaaaatgc (antisense GATTGGGTCCGTAAAAATGC; all phosphorothioate, sugars by position and methylation of C not given here; 2'-MOE gapmer) | at least 35%
6 | ISIS 155110: 2′-MOE gapmer, phosphorothioate backbone, sequence tcgggacactaactgaattc (antisense TCGGGACACTAACTGAATTC; all phosphorothioate, sugars by position and methylation of C not given here; 2'-MOE gapmer) | at least 35%
7 | ISIS 155114: 2′-MOE gapmer, phosphorothioate backbone, sequence aattgttgctttcaaaggca (antisense AATTGTTGCTTTCAAAGGCA; all phosphorothioate, sugars by position and methylation of C not given here; 2'-MOE gapmer) | at least 35%
8 | ISIS 155108: 2′-MOE gapmer, phosphorothioate backbone, sequence attctcgggacactaactga (antisense ATTCTCGGGACACTAACTGA; all phosphorothioate, sugars by position and methylation of C not given here; 2'-MOE gapmer) | at least 35%
9 | ISIS 209535: 2′-MOE gapmer, phosphorothioate backbone, sequence ataacaatacaagtcctatg (antisense ATAACAATACAAGTCCTATG; all phosphorothioate, sugars by position and methylation of C not given here; 2'-MOE gapmer) | at least 35%
10 | ISIS 209546: 2′-MOE gapmer, phosphorothioate backbone, sequence aattcaagttttggactcca (antisense AATTCAAGTTTTGGACTCCA; all phosphorothioate, sugars by position and methylation of C not given here; 2'-MOE gapmer) | at least 35%
11 | ISIS 155123: 2′-MOE gapmer, phosphorothioate backbone, sequence gcaaagctgtggtaaactct (antisense GCAAAGCTGTGGTAAACTCT; all phosphorothioate, sugars by position and methylation of C not given here; 2'-MOE gapmer) | at least 35%
